Measured values taken from the supplement of paper PMC10307832.

Assays:
Experiment in all cases: relative viability (nuclei count vs DMSO), 5 days (fraction); higher = more cells survive
AGI-6780 + Pictilisib = compound: O=C(Nc1cccc(C(F)(F)F)c1)Nc1cc(S(=O)(=O)NC2CC2)ccc1-c1ccsc1 [AGI-6780] + CS(=O)(=O)N1CCN(Cc2cc3nc(-c4cccc5[nH]ncc45)nc(N4CCOCC4)c3s2)CC1 [Pictilisib] (partner 1 µM)
Procedure, shortened: (§1)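 Relative viability was taken as the ratio of nuclei in treated wells to nuclei in vehicle wells. Lung cancer cell lines in 1536-well plates received compounds by pin tool one day after seeding, either one drug alone or a fixed anchor-drug dose plus five library-drug doses (not always all listed) in √10 steps. Nuclei were counted on 4× images after 5 days of treatment, and values are medians of duplicate plates.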

AGI-6780 + Crizotinib = compound: O=C(Nc1cccc(C(F)(F)F)c1)Nc1cc(S(=O)(=O)NC2CC2)ccc1-c1ccsc1 [AGI-6780] + C[C@@H](Oc1cc(-c2cnn(C3CCNCC3)c2)cnc1N)c1c(Cl)ccc(F)c1Cl [Crizotinib] (partner 1 µM)
Procedure, shortened: as §1

AGI-6780 + Dasatinib = compound: O=C(Nc1cccc(C(F)(F)F)c1)Nc1cc(S(=O)(=O)NC2CC2)ccc1-c1ccsc1 [AGI-6780] + Cc1nc(Nc2ncc(C(=O)Nc3c(C)cccc3Cl)s2)cc(N2CCN(CCO)CC2)n1 [Dasatinib] (partner 0.075 µM)
Procedure, shortened: as §1

AGI-6780 + Vorinostat = compound: O=C(Nc1cccc(C(F)(F)F)c1)Nc1cc(S(=O)(=O)NC2CC2)ccc1-c1ccsc1 [AGI-6780] + O=C(CCCCCCC(=O)Nc1ccccc1)NO [Vorinostat] (partner 1 µM)
Procedure, shortened: as §1

| Cell Line | relative viability (AGI-6780 + Pictilisib; first compound 0.08 µM) | relative viability (AGI-6780 + Pictilisib; first compound 0.253 µM) | relative viability (AGI-6780 + Pictilisib; first compound 0.8 µM) | relative viability (AGI-6780 + Pictilisib; first compound 2.53 µM) | relative viability (AGI-6780 + Pictilisib; first compound 8 µM) | relative viability (AGI-6780 + Crizotinib; first compound 0.08 µM) | relative viability (AGI-6780 + Crizotinib; first compound 0.253 µM) | relative viability (AGI-6780 + Crizotinib; first compound 0.8 µM) | relative viability (AGI-6780 + Crizotinib; first compound 2.53 µM) | relative viability (AGI-6780 + Crizotinib; first compound 8 µM) | relative viability (AGI-6780 + Dasatinib; first compound 0.08 µM) | relative viability (AGI-6780 + Dasatinib; first compound 0.253 µM) | relative viability (AGI-6780 + Dasatinib; first compound 0.8 µM) | relative viability (AGI-6780 + Dasatinib; first compound 2.53 µM) | relative viability (AGI-6780 + Dasatinib; first compound 8 µM) | relative viability (AGI-6780 + Vorinostat; first compound 0.08 µM) | relative viability (AGI-6780 + Vorinostat; first compound 0.253 µM) | relative viability (AGI-6780 + Vorinostat; first compound 0.8 µM) | relative viability (AGI-6780 + Vorinostat; first compound 2.53 µM) | relative viability (AGI-6780 + Vorinostat; first compound 8 µM) |
| --- | --- | --- | --- | --- | --- | --- | --- | --- | --- | --- | --- | --- | --- | --- | --- | --- | --- | --- | --- | --- |
| 201T | 0.699 | 0.735 | 0.686 | 0.647 | 0.702 | 1.04 | 1.04 | 1.01 | 1.03 | 1.05 | 0.613 | 0.53 | 0.564 | 0.476 | 0.6 | 0.991 | 0.98 | 1.06 | 0.951 | 1.04 |
| A549 | 0.583 | 0.463 | 0.604 | 0.459 | 0.463 | 0.763 | 0.765 | 0.855 | 0.625 | 0.836 |  |  |  |  |  |  |  |  |  |  |
| A-427 | 0.702 | 0.753 | 0.653 | 0.524 | 0.854 | 1.02 | 0.897 | 1.06 | 0.693 | 0.901 | 0.696 | 0.66 | 0.759 | 0.582 | 0.668 |  | 0.82 | 0.857 | 0.816 | 0.836 |
| ABC-1 | 0.86 | 0.865 | 1.05 | 0.864 | 0.756 | 1.1 | 1.17 | 1.69 | 1.2 | 0.978 | 0.589 | 0.57 | 0.632 | 0.553 | 0.712 |  | 1.52 | 1.38 | 0.842 | 1.03 |
| BEN | 0.527 | 0.629 | 0.586 |  | 0.521 | 0.891 | 0.738 | 0.955 |  | 0.966 | 0.219 | 0.348 | 0.291 | 0.3 | 0.377 | 0.62 | 0.539 | 0.692 |  | 0.629 |
| CAL-12T |  | 0.575 | 0.531 | 0.717 | 0.644 | 0.686 | 0.681 | 0.61 | 0.87 | 0.716 | 0.549 | 0.501 | 0.676 | 0.4 | 0.487 | 0.884 | 0.729 | 1.16 | 0.662 | 0.732 |
| COR-L23 | 0.772 | 0.755 | 0.702 | 0.66 | 0.827 | 0.678 | 0.622 | 0.564 | 0.754 | 0.617 | 0.548 | 0.42 | 0.529 | 0.496 | 0.488 | 0.348 | 0.425 | 0.429 | 0.554 | 0.453 |
| COR-L 105 | 0.482 | 0.393 | 0.463 | 0.463 | 0.39 | 0.899 | 0.738 | 1.01 | 0.708 | 0.848 | 0.345 | 0.349 | 0.397 | 0.369 | 0.378 | 0.908 | 1.34 | 0.975 | 0.97 | 0.841 |
| ChaGo-K-1 | 0.593 | 0.809 | 0.938 | 0.552 | 0.704 | 1.18 | 1.06 | 1.43 | 0.959 | 1.14 | 0.612 | 0.543 | 0.576 | 0.524 | 0.642 | 0.727 | 0.787 | 0.745 | 0.63 | 0.825 |
| EKVX | 0.445 | 0.437 | 0.495 | 0.395 | 0.495 | 0.904 | 0.813 | 1.15 | 0.888 | 1.07 | 0.583 | 0.467 | 0.598 | 0.6 | 0.619 | 0.827 | 0.686 | 0.752 | 0.721 | 0.614 |
| EMC-BAC-2 | 0.579 | 0.575 | 0.602 | 0.395 | 0.617 | 0.791 | 0.728 | 0.763 | 0.668 | 0.78 | 0.313 | 0.338 | 0.311 | 0.273 | 0.334 |  | 0.453 | 0.809 | 0.4 | 0.421 |
| EPLC-272H | 0.39 | 0.33 | 0.257 | 0.344 | 0.318 | 0.888 | 0.929 | 0.841 | 0.714 | 0.791 |  | 0.423 | 0.292 | 0.285 | 0.365 | 0.351 | 0.401 | 0.318 | 0.554 | 0.289 |
| H3255 | 0.475 | 0.436 | 0.512 | 0.457 | 0.443 | 0.884 | 0.848 | 0.997 | 0.84 | 0.921 | 0.349 | 0.374 | 0.456 | 0.353 | 0.333 | 0.541 | 0.865 | 0.893 |  | 0.867 |
| HARA | 0.379 | 0.406 | 0.54 | 0.587 | 0.371 | 1.05 | 1.08 | 0.894 | 1.01 | 1.07 | 0.229 | 0.278 | 0.259 | 0.179 | 0.233 | 0.431 | 0.575 | 0.499 | 0.528 | 0.616 |
| HCC-15 | 0.88 | 0.82 | 0.834 | 0.594 | 0.801 | 0.831 | 0.833 | 0.834 | 0.813 | 0.825 | 0.732 | 0.636 | 0.736 | 0.437 | 0.621 | 0.917 | 0.88 | 0.875 | 0.832 | 0.828 |
| HCC-44 | 0.745 | 0.72 | 0.649 | 0.496 | 0.486 | 0.769 | 0.811 | 0.82 | 0.855 | 0.821 |  |  |  |  |  | 1.16 | 1.03 | 1.13 | 1.08 | 1.11 |
| HCC-78 | 0.159 | 0.241 | 0.299 | 0.152 | 0.249 | 0.378 | 0.337 | 0.422 | 0.353 | 0.343 |  | 0.388 | 0.433 | 0.364 | 0.351 | 0.527 | 0.411 | 0.577 | 0.432 | 0.389 |
